Experimental data reported in ChEMBL document CHEMBL3132765, “Discovery of novel RIP derivatives by alanine scanning for the treatment of S. aureus infections” (Medchemcomm, 2013).
In brackets after ≈: the same amount, converted by molar mass. Activity calls are given as the source filed them. The calls are words filed in the database; no cut-off is given here. Peptide text beside a SMILES is read from it.

What was measured:
[1] = test system: Rattus norvegicus; assay: Toxicity in Wistar rat infected with methicillin-susceptible Staphylococcus aureus Smith diffuse assessed as behavioral alterations at 7 mg/kg administered as solution by soaking of graft after 7 days; format: organism-based; set-up: dose 7 mg/kg; settings: in vivo, other, 168 h
[2] = test system: Rattus norvegicus; assay: Toxicity in Wistar rat infected with methicillin-susceptible Staphylococcus aureus Smith diffuse assessed as diarrhea at 7 mg/kg administered as solution by soaking of graft after 7 days; format: organism-based; set-up: dose 7 mg/kg; settings: in vivo, other, 168 h
[3] = test system: Rattus norvegicus; assay: Toxicity in Wistar rat infected with methicillin-susceptible Staphylococcus aureus Smith diffuse assessed as vomiting at 7 mg/kg administered as solution by soaking of graft after 7 days; format: organism-based; set-up: dose 7 mg/kg; settings: in vivo, other, 168 h
[4] = test system: Rattus norvegicus; assay: Toxicity in Wistar rat infected with methicillin-susceptible Staphylococcus aureus Smith diffuse assessed as anorexia at 7 mg/kg administered as solution by soaking of graft after 7 days; format: organism-based; set-up: dose 7 mg/kg; settings: in vivo, other, 168 h
[5] = test system: Rattus norvegicus; assay: Toxicity in Wistar rat infected with methicillin-susceptible Staphylococcus aureus Smith diffuse assessed as perigraft inflammation at 7 mg/kg administered as solution by soaking of graft after 7 days; format: organism-based; set-up: dose 7 mg/kg; settings: in vivo, other, 168 h
[6] = test system: Rattus norvegicus; assay: Toxicity in Wistar rat infected with methicillin-susceptible Staphylococcus aureus Smith diffuse assessed as mortality at 7 mg/kg administered as solution by soaking of graft after 7 days; format: organism-based; set-up: dose 7 mg/kg; settings: in vivo, other, 168 h
[7] = test system: Staphylococcus aureus; assay: Antimicrobial activity against methicillin-susceptible Staphylococcus aureus Smith diffuse assessed as inhibition of biofilm formation by cell-based microbroth dilution method; format: functional
[8] = test system: Rattus norvegicus; assay: Toxicity in Wistar rat infected with methicillin-susceptible Staphylococcus aureus Smith diffuse assessed as behavioral alterations administered as solution by soaking of graft after 7 days; format: organism-based; settings: in vivo, other, 168 h
[9] = test system: Rattus norvegicus; assay: Toxicity in Wistar rat infected with methicillin-susceptible Staphylococcus aureus Smith diffuse assessed as diarrhea administered as solution by soaking of graft after 7 days; format: organism-based; settings: in vivo, other, 168 h
[10] = test system: Rattus norvegicus; assay: Toxicity in Wistar rat infected with methicillin-susceptible Staphylococcus aureus Smith diffuse assessed as vomiting administered as solution by soaking of graft after 7 days; format: organism-based; settings: in vivo, other, 168 h
[11] = test system: Rattus norvegicus; assay: Toxicity in Wistar rat infected with methicillin-susceptible Staphylococcus aureus Smith diffuse assessed as anorexia administered as solution by soaking of graft after 7 days; format: organism-based; settings: in vivo, other, 168 h
[12] = test system: Rattus norvegicus; assay: Toxicity in Wistar rat infected with methicillin-susceptible Staphylococcus aureus Smith diffuse assessed as perigraft inflammation administered as solution by soaking of graft after 7 days; format: organism-based; settings: in vivo, other, 168 h
[13] = test system: Rattus norvegicus; assay: Toxicity in Wistar rat infected with methicillin-susceptible Staphylococcus aureus Smith diffuse assessed as mortality administered as solution by soaking of graft after 7 days; format: organism-based; settings: in vivo, other, 168 h
[14] = test system: Staphylococcus aureus; assay: Antimicrobial activity against methicillin-susceptible Staphylococcus aureus Smith diffuse infected in Wistar rat assessed as reduction in infection administered as solution by soaking of graft after 7 days relative to control; format: functional, organism-based

Compound | Activity [1] | Activity [2] | Activity [3] | Activity [4] | Activity [5] | Activity [6] | MIC [7] | Activity [8] | Activity [9] | Activity [10] | Activity [11] | Activity [12] | Activity [13] | Activity [14]
CCCCCCCCCC(=O)N[C@@H](Cc1c[nH]c2ccccc12)C(=O)N[C@H](CC(N)=O)C(=O)N[C@@H](CC(=O)O)C(=O)N[C@@H]1C(=O)NCC(=O)N[C@@H](CCCN)C(=O)N[C@@H](CC(=O)O)C(=O)N[C@H](C)C(=O)N[C@@H](CC(=O)O)C(=O)NCC(=O)N[C@H](CO)C(=O)N[C@@H]([C@H](C)CC(=O)O)C(=O)N[C@@H](CC(=O)c2ccccc2N)C(=O)O[C@@H]1C | Non-toxic | Non-toxic | Non-toxic | Non-toxic | Non-toxic | Non-toxic | 4 µg/mL (≈ 2.47 µM) |  |  |  |  |  |  | 
C[C@@H](O)[C@H](NC(=O)[C@H](Cc1c[nH]c2ccccc12)NC(=O)[C@@H]1CCCN1)C(=O)N[C@@H](CC(N)=O)C(N)=O (H-PWTN-NH2) |  |  |  |  |  |  | > 128 µg/mL | Non-toxic | Non-toxic | Non-toxic | Non-toxic | Non-toxic | Non-toxic | Active
C[C@@H](O)[C@H](NC(=O)[C@H](Cc1c[nH]c2ccccc12)NC(=O)[C@@H]1CCCN1C(=O)[C@@H](N)CO)C(N)=O (H-SPWT-NH2) |  |  |  |  |  |  | > 128 µg/mL | Non-toxic | Non-toxic | Non-toxic | Non-toxic | Non-toxic | Non-toxic | Active
C[C@@H](O)[C@H](NC(=O)[C@@H](N)Cc1c[nH]c2ccccc12)C(=O)N[C@@H](CC(N)=O)C(=O)N[C@@H](Cc1ccccc1)C(N)=O (H-WTNF-NH2) |  |  |  |  |  |  | > 128 µg/mL | Non-toxic | Non-toxic | Non-toxic | Non-toxic | Non-toxic | Non-toxic | Active
NC(=O)[C@H](Cc1c[nH]c2ccccc12)NC(=O)[C@@H]1CCCN1C(=O)[C@H](CO)NC(=O)[C@@H](N)Cc1ccc(O)cc1 (H-YSPW-NH2) |  |  |  |  |  |  | > 128 µg/mL | Non-toxic | Non-toxic | Non-toxic | Non-toxic | Non-toxic | Non-toxic | Active
H-ASPWTNF-NH2 |  |  |  |  |  |  | > 128 µg/mL | Non-toxic | Non-toxic | Non-toxic | Non-toxic | Non-toxic | Non-toxic | Active
H-YAPWTNF-NH2 |  |  |  |  |  |  | > 128 µg/mL | Non-toxic | Non-toxic | Non-toxic | Non-toxic | Non-toxic | Non-toxic | Active
H-YSAWTNF-NH2 |  |  |  |  |  |  | > 128 µg/mL | Non-toxic | Non-toxic | Non-toxic | Non-toxic | Non-toxic | Non-toxic | Active
H-YSPATNF-NH2 |  |  |  |  |  |  | > 128 µg/mL | Non-toxic | Non-toxic | Non-toxic | Non-toxic | Non-toxic | Non-toxic | Active
H-YSPWANF-NH2 |  |  |  |  |  |  | > 128 µg/mL | Non-toxic | Non-toxic | Non-toxic | Non-toxic | Non-toxic | Non-toxic | Active
H-YSPWTAF-NH2 |  |  |  |  |  |  | > 128 µg/mL | Non-toxic | Non-toxic | Non-toxic | Non-toxic | Non-toxic | Non-toxic | Active
H-YSPWTNA-NH2 |  |  |  |  |  |  | > 128 µg/mL | Non-toxic | Non-toxic | Non-toxic | Non-toxic | Non-toxic | Non-toxic | Active
H-YSPWTNF-NH2 |  |  |  |  |  |  |  |  |  |  |  |  |  | Active
